# From US20250313533A1, “QUINOLINE CARBOXYLIC ACID ESTER COMPOUND AND PREPARATION METHOD AND USE THEREOF” (priority 2019, published 2025)
# Tests used:
# black shank in potatoes = experiment: Living crops in vivo protective activity, potatoes (root irrigation); conditions: Solanum tuberosum, read-out: efficacy against black shank in potatoes; for pest or weed control at 5 ppm: dosage 5 ppm; for pest or weed control at 10 ppm: dosage 10 ppm
# Protocol: Root irrigation was carried out on the potatoes for tests according to the designed concentration of the agents. The dosage for each plant was 200 mL and was kept consistent (also for the control). The black shank bacteria were inoculated on the second day after the application. The results were investigated according to the disease condition.
# [1] = test system: fruit blotch in watermelons; experiment: whole plant or invertebrate; conditions: read-out: efficacy against fruit blotch in watermelons
# [2] = test system: pathogenic bacteria causing black shank in potatoes; experiment: In vitro bactericidal activity, black shank in potatoes; assay type: cell-based; conditions: read-out: inhibitory rate; for inhibition at 1 ppm: dosage 1 ppm; for inhibition at 5 ppm: dosage 5 ppm
# [3] = test system: pathogenic bacteria causing bacterial blight in rice; experiment: whole plant or invertebrate; assay type: cell-based, xanthomonas; conditions: read-out: inhibitory rate
# [4] = test system: bacterial wilt in tobacco; experiment: whole plant or invertebrate; conditions: Nicotiana tabacum, read-out: efficacy against bacterial wilt in tobacco
# [5] = test system: pathogenic bacteria causing bacterial wilt in cassava; experiment: organism not typed; assay type: cell-based; conditions: read-out: inhibitory rate
# cucumber seedlings = experiment: Safety for plant growth after application; assay type: in vivo; conditions: dosage 200 ppm
# Outline: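 Read-outs are chlorophyll content, leaf area and the rate of increase in plant height, all measured on cucumber seedlings kept in pots indoors after application.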
# [6] = test system: pathogenic bacteria causing stem rot in sweet potatoes; experiment: In vitro bactericidal activity, stem rot in sweet potatoes; assay type: cell-based, dikia; conditions: read-out: inhibitory rate; for inhibition at 1 ppm: dosage 1 ppm; for inhibition at 5 ppm: dosage 5 ppm
# bacterial blight in rice = experiment: whole plant or invertebrate; conditions: Oryza sativa, read-out: efficacy against bacterial blight in rice
# [7] = test system: pathogenic bacteria causing bacterial wilt in tobacco; experiment: whole plant or invertebrate; assay type: cell-based, ralstonia; conditions: read-out: inhibitory rate
# [8] = test system: pathogenic bacteria causing black rot in Chinese cabbages; experiment: In vitro bactericidal activity, black rot in Chinese cabbages; assay type: cell-based, xanthomonas; conditions: Xanthomonas, read-out: inhibitory rate; for inhibition at 1 ppm: dosage 1 ppm; for inhibition at 5 ppm: dosage 5 ppm
# [9] = test system: soft rot in Chinese cabbages; experiment: whole plant or invertebrate; conditions: 48 h, read-out: efficacy against soft rot in Chinese cabbages
# [10] = test system: pathogenic bacteria causing fire blight in pears; experiment: In vitro bactericidal activity, fire blight in pears; assay type: cell-based, erwinia; conditions: Erwinia, read-out: inhibitory rate; for inhibition at 1 ppm: dosage 1 ppm; for inhibition at 5 ppm: dosage 5 ppm
# [11] = test system: pathogenic bacteria causing fruit blotch in watermelons; experiment: In vitro bactericidal activity, fruit blotch in watermelons; assay type: cell-based, acidovorax; conditions: read-out: inhibitory rate; for inhibition at 1 ppm: dosage 1 ppm; for inhibition at 5 ppm: dosage 5 ppm
# [12] = test system: indoor potted cucumber seedlings; experiment: Effect of improving growth and development of crops; assay type: in vivo; parameters: Rate of growth rate increase (%): concentration or dose not given beside the values; conditions: versus blank control; for Rate of chlorophyll content increase (%) / Rate of leaf area increase (%): 14 days after application; for Rate of growth rate increase (%): plant height 14 days after application; for Rate of leaf area increase (%): second leaf
# Protocol: Taking indoor potted cucumber seedlings as an example, the influence of the compound disclosed herein on growth rate of plant height, chlorophyll content, leaf area, etc. of crops was mainly evaluated.
# The plant heights of plants before application and 14 days after the application were measured.
# The growth rates were calculated according to formula (1)
# The rates of the growth rate increase (%) were calculated according to formula (2)
# The longitudinal and transverse diameters (i.e., leaf length and leaf width, respectively, wherein the leaf length is the distance from the base to the tip of a leaf, and leaf width is the measured value of the upper shoulder width of the leaf) of the second leaf of plants before application and 14 days after the application were measured.
# The leaf areas were calculated according to formula (3)
# The leaf area increases were calculated according to formula (4)
# The rates of the leaf area increases were calculated according to formula (5)
# The chlorophyll contents of leaves were measured by using a chlorophyll measuring instrument (model: SPAD-520 Plus).
# The chlorophyll content increases were calculated according to formula (6)
# The rates of the chlorophyll content increases were calculated according to formula (7)
# [13] = test system: stem rot in sweet potatoes; experiment: whole plant or invertebrate; conditions: read-out: efficacy against stem rot in sweet potatoes
# [14] = test system: pathogenic bacteria causing bacterial angular leaf spot in cucumbers; experiment: In vitro bactericidal activity, bacterial angular leaf spot in cucumbers; assay type: cell-based, pseudomonas; conditions: read-out: inhibitory rate; for inhibition at 1 ppm: dosage 1 ppm; for inhibition at 5 ppm: dosage 5 ppm
Structure (SMILES),pest or weed control at 5 ppm (black shank in potatoes),pest or weed control at 10 ppm (black shank in potatoes),pest or weed control at 5 ppm [1],pest or weed control at 10 ppm [1],inhibition at 1 ppm [2],inhibition at 5 ppm [2],inhibition at 1 ppm [3],inhibition at 5 ppm [3],pest or weed control at 5 ppm [4],pest or weed control at 10 ppm [4],inhibition at 1 ppm [5],inhibition at 5 ppm [5],"safety for plant growth (discoloration, necrosis, wilt, malformation) (cucumber seedlings)",inhibition at 1 ppm [6],inhibition at 5 ppm [6],pest or weed control at 5 ppm (bacterial blight in rice),pest or weed control at 10 ppm (bacterial blight in rice),inhibition at 1 ppm [7],inhibition at 5 ppm [7],inhibition at 1 ppm [8],further results
"O=C(OCCO)c1cn(C2CC2)c2cc(Cl)c(F)cc2c1=O [Compound 151, 2-hydroxyethyl-7-chloro-1-cyclopropyl-6-fluoro-4-oxo-1,4-dihydroquinoline-3-carboxylate]",≥ 90%,≥ 90%,≥ 90%,≥ 90%,≥ 90%,≥ 90%,≥ 90%,≥ 90%,≥ 90%,≥ 90%,≥ 90%,≥ 90%,safe for plant growth,≥ 90%,≥ 90%,≥ 90%,≥ 90%,≥ 90%,≥ 90%,≥ 90%,inhibition at 5 ppm [8]: ≥ 90%; pest or weed control at 5 ppm [9]: ≥ 90%; pest or weed control at 10 ppm [9]: ≥ 90%; inhibition at 1 ppm [10]: ≥ 90%; inhibition at 5 ppm [10]: ≥ 90%; inhibition at 1 ppm [11]: ≥ 90%; inhibition at 5 ppm [11]: ≥ 90%; Rate of chlorophyll content increase (%) [12]: 15%; Rate of growth rate increase (%) [12]: 12%; Rate of leaf area increase (%) [12]: 16%; pest or weed control at 5 ppm [13]: ≥ 90%; pest or weed control at 10 ppm [13]: ≥ 90%; inhibition at 1 ppm [14]: ≥ 90%; inhibition at 5 ppm [14]: ≥ 90%
CCOCCOC(=O)c1cn(C2CC2)c2cc(Cl)c(F)cc2c1=O [Compound 153],≥ 90%,≥ 90%,≥ 90%,≥ 90%,≥ 90%,≥ 90%,≥ 90%,≥ 90%,≥ 90%,≥ 90%,≥ 90%,≥ 90%,safe for plant growth,≥ 90%,≥ 90%,≥ 90%,≥ 90%,≥ 90%,≥ 90%,≥ 90%,inhibition at 5 ppm [8]: ≥ 90%; pest or weed control at 5 ppm [9]: ≥ 90%; pest or weed control at 10 ppm [9]: ≥ 90%; inhibition at 1 ppm [10]: ≥ 90%; inhibition at 5 ppm [10]: ≥ 90%; inhibition at 1 ppm [11]: ≥ 90%; inhibition at 5 ppm [11]: ≥ 90%; Rate of chlorophyll content increase (%) [12]: 14%; Rate of growth rate increase (%) [12]: 15%; Rate of leaf area increase (%) [12]: 13%; pest or weed control at 5 ppm [13]: ≥ 90%; pest or weed control at 10 ppm [13]: ≥ 90%; inhibition at 1 ppm [14]: ≥ 90%; inhibition at 5 ppm [14]: ≥ 90%
"O=C(OCCCO)c1cn(C2CC2)c2cc(Cl)c(F)cc2c1=O [Compound 164, 3-hydroxypropyl 7-chloro-1-cyclopropyl-6-fluoro-4-oxo-1,4-dihydroquinoline-3-carboxylate]",≥ 90%,≥ 90%,≥ 90%,≥ 90%,≥ 90%,≥ 90%,≥ 90%,≥ 90%,≥ 90%,≥ 90%,≥ 90%,≥ 90%,safe for plant growth,≥ 90%,≥ 90%,≥ 90%,≥ 90%,≥ 90%,≥ 90%,≥ 90%,inhibition at 5 ppm [8]: ≥ 90%; pest or weed control at 5 ppm [9]: ≥ 90%; pest or weed control at 10 ppm [9]: ≥ 90%; inhibition at 1 ppm [10]: ≥ 90%; inhibition at 5 ppm [10]: ≥ 90%; inhibition at 1 ppm [11]: ≥ 90%; inhibition at 5 ppm [11]: ≥ 90%; Rate of chlorophyll content increase (%) [12]: 19%; Rate of growth rate increase (%) [12]: 12%; Rate of leaf area increase (%) [12]: 16%; pest or weed control at 5 ppm [13]: ≥ 90%; pest or weed control at 10 ppm [13]: ≥ 90%; inhibition at 1 ppm [14]: ≥ 90%; inhibition at 5 ppm [14]: ≥ 90%
"COCCCOC(=O)c1cn(C2CC2)c2cc(Cl)c(F)cc2c1=O [Compound 165, 3-methoxypropyl 7-chloro-1-cyclopropyl-6-fluoro-4-oxo-1,4-dihydroquinoline-3-carboxylate]",≥ 90%,≥ 90%,≥ 90%,≥ 90%,≥ 90%,≥ 90%,≥ 90%,≥ 90%,≥ 90%,≥ 90%,≥ 90%,≥ 90%,safe for plant growth,≥ 90%,≥ 90%,≥ 90%,≥ 90%,≥ 90%,≥ 90%,≥ 90%,inhibition at 5 ppm [8]: ≥ 90%; pest or weed control at 5 ppm [9]: ≥ 90%; pest or weed control at 10 ppm [9]: ≥ 90%; inhibition at 1 ppm [10]: ≥ 90%; inhibition at 5 ppm [10]: ≥ 90%; inhibition at 1 ppm [11]: ≥ 90%; inhibition at 5 ppm [11]: ≥ 90%; Rate of chlorophyll content increase (%) [12]: 16%; Rate of growth rate increase (%) [12]: 12%; Rate of leaf area increase (%) [12]: 17%; pest or weed control at 5 ppm [13]: ≥ 90%; pest or weed control at 10 ppm [13]: ≥ 90%; inhibition at 1 ppm [14]: ≥ 90%; inhibition at 5 ppm [14]: ≥ 90%
COCCCCOC(=O)c1cn(C2CC2)c2cc(Cl)c(F)cc2c1=O [Compound 178],≥ 80%,≥ 90%,≥ 90%,≥ 90%,≥ 80%,≥ 90%,≥ 90%,≥ 90%,≥ 90%,≥ 90%,≥ 90%,≥ 90%,safe for plant growth,≥ 90%,≥ 90%,≥ 90%,≥ 90%,≥ 90%,≥ 90%,≥ 90%,inhibition at 5 ppm [8]: ≥ 90%; pest or weed control at 5 ppm [9]: ≥ 90%; pest or weed control at 10 ppm [9]: ≥ 90%; inhibition at 1 ppm [10]: ≥ 90%; inhibition at 5 ppm [10]: ≥ 90%; inhibition at 1 ppm [11]: ≥ 90%; inhibition at 5 ppm [11]: ≥ 90%; Rate of chlorophyll content increase (%) [12]: 15%; Rate of growth rate increase (%) [12]: 9%; Rate of leaf area increase (%) [12]: 9%; pest or weed control at 5 ppm [13]: ≥ 90%; pest or weed control at 10 ppm [13]: ≥ 90%; inhibition at 1 ppm [14]: ≥ 90%; inhibition at 5 ppm [14]: ≥ 90%
